Measured values: a melting point compilation (Tetko et al.; mined from patent text by program, amines drawn as free bases though some values may be those of a salt)

melting point	SMILES
235 to 236 °C	CC(C)(C)OC(=O)NC1Cc2cccc3[nH]c(=O)n(c23)C1 (centres undefined)
148 to 150 °C	CCOC(=O)CN1C(=O)C(N[C@H]2CCCCNC2=O)CCc2ccccc21 (some centres undefined)
183 to 185 °C	CC(=O)NCc1ccc2c(c1)CN(C1CCC(=O)NC1=O)C2=O (centres undefined)
80 to 81 °C	N#Cc1ccc(N2CCOCC2)cc1
90 to 95 °C	C=C(C)C(=O)[C@@H]1CCCC[C@H]1C(=O)OC(c1ccccc1)c1ccccc1 (relative stereo)
209 to 210 °C	OC(CNC(=S)NCc1ccc(Cl)cc1)(Cn1cncn1)c1ccc(Cl)cc1Cl (centres undefined)
55 to 60 °C	O=C(NCc1ccccc1)c1ccnc(N2CCC(c3ccccc3)CC2=O)c1 (centres undefined)
132 to 134 °C	CCCCCCCCCCCCCCN(C(=O)CCCCCCCCCCC)C1(N)OC(CO)C(O)C(O)C1C(=O)CNC(=O)C(C)(N)C(=O)C(C)N (centres undefined)
130 to 132 °C	OCCOCCn1ccc2ncnc(Nc3ccc(Oc4cccc(C(F)(F)F)c4)c(Cl)c3)c21
209 to 211 °C	CCOC(=O)c1cn(C2CC2)c2c(C#N)c(F)c(F)cc2c1=O
183 to 184 °C	CC(=O)N(c1ccc(O)cc1)N1CCOCC1
166 to 168 °C	CC(C)(C)OC(=O)N1CCCCc2ccc(Cl)nc21
95 to 99 °C	NC1=NC(c2ccc(OC(F)(F)F)cc2)(c2cccc(-c3cccnc3F)c2)C2=NCCCCCN12 (centres undefined)
142 to 146 °C	CCCc1c(OCCC(=O)O)ccc(C(C)=O)c1O
159 to 161 °C	COc1ccc2c(c1)C[C@@H](C(N)=O)CC2
149 to 150 °C	CCCCn1c(=O)c(NC(=O)Nc2cc(CO)ccc2C(C)(C)C)c(-c2cccc(OCc3cccnc3)c2)c2cccnc21
161 to 163 °C	CN1CCCC1C1CCCN(CC(=O)N2c3ccccc3NC(=O)c3ccccc32)C1 (centres undefined)
128 to 130 °C	CCCn1cc(C(=O)OCC)c(=O)c2cc(F)c(-n3cccc3)cc21
205 °C	O=C(O)c1ccc(-c2nc(NCc3ccc4c(c3)OCO4)c3c4c(oc3n2)CCCC4)cc1
90 to 92 °C	CC(=O)c1ccc2c(c1)N(C1CCN(CCc3ccc(F)cc3)CC1)CC2
69 to 71 °C	CC1CCCN1CCCN1CCN(CCN2CCCC2C)C1=C(C#N)C#N (centres undefined)
89 to 91 °C	Nc1c(Cl)cc(C(O)CNCCCCCOCCCc2ccc(C(=O)O)o2)cc1Cl (centres undefined)

melting point	SMILES
38 °C	CCCCCc1ccc(-c2ccc(OCCCC)c(N)c2)cc1
159 to 160 °C	CCC(OCC1CC1)c1ccc(Cl)c2nc3n(c12)CCCN3c1ccc(Cl)cc1Cl (centres undefined)
199 to 202 °C	CSCCCn1c(C)nc2c(N)nc3ccccc3c21
178 to 179 °C	COc1cc2nc(Cl)nc(N3CCN(C(=O)Nc4ccc(Oc5ccccc5)cc4)CC3)c2cc1OC
133 to 135 °C	CNS(=O)(=O)Cc1ccc2c(c1)c(CC#N)cn2Cc1ccccc1
137 °C	CCCCCCCCCCCCCCCCC(=O)Nc1ccc(O)cc1
108 °C	CC1(C)Cc2cc([N+](=O)[O-])cc(OCC3CO3)c2O1 (centres undefined)
162 to 164 °C	O=C(O)CN1CN(c2ccccc2)C2(CCCCC2)C1
201 to 203 °C	CC(Cl)(Cl)C(NC(=O)c1cccs1)NC(=NC#N)Nc1ccc(Cl)nc1 (centres undefined)
71 to 74 °C	CCOC(=O)C(=CNc1cccc(N)c1)C(=O)OCC
33 to 35 °C	OC[C@@H]1CC=CC[C@@H]1CO
178 to 180 °C	Cn1cc(-c2cccc(N3Cc4cc(C(C)(C)C)ccc4C3=O)c2CO)cc(Nc2cc(C3CC3)n[nH]2)c1=O
122 to 123 °C	CN1CCc2cc([N+](=O)[O-])c(O)cc2C(c2cccc3c2OCC3)C1 (single isomer, unassigned; (+))
118 to 120 °C	CCOC(=O)C1=C(COCCn2c(C)nc3ccccc32)NC2=C(C(=O)C(C)(C)CC2)C1c1ccccc1Cl (centres undefined)
98 to 99 °C	COc1ccc(N2CCN(c3c(C)c(C)c4c(c3C)C(OCc3ccccc3)C(C)(C)O4)CC2)cc1 (centres undefined)
49 to 50 °C	CCOC(=O)c1cc(C)c(OCCCc2cc(C)no2)c(C)c1
182 to 184 °C	NC(=O)N1CCCC(=O)c2ccc(Cl)cc2CCC1=O
56 to 58 °C	N#CC(=NOS(=O)(=O)CCCCl)c1cccs1
184 °C	OC1CSC(Oc2cnc(-c3ccc(F)nc3)c(F)c2)C(O)C1O (centres undefined)
172 to 174 °C	CCCCCCCN(CC)C(=O)Cc1ccc(N)cc1
210 to 214 °C	Cc1c(-c2ccc(OCC3CC3)cc2)nc2n(Cc3c(F)cccc3F)cc(-c3ccccc3)c(=O)n12

Continued, molecule first:

SMILES	melting point
O=C(NS(=O)(=O)c1ccc(Cl)cc1)N1C(=O)C(c2ccccc2)N1C(c1ccccc1)c1ccccc1 (centres undefined)	162 to 163 °C
OC(CCN1CC=C(c2ccc(Cl)cc2)CC1)c1ccc(F)cc1 (centres undefined)	130 to 132 °C
NC(=O)c1[nH]cnc1OC(=O)C=Cc1ccc(C=O)cc1	233 °C
Ic1nnnn1-c1ccccc1	123 to 129 °C
CC(C)Oc1ccc2ncn(/C=C/C(=O)O)c(=O)c2c1	232 to 234 °C
O=c1c(Br)cn(-c2cccc(C(F)(F)F)c2)nc1-c1ccnn1-c1ccccc1	145 to 146 °C
CSc1ccc2c(c1)Cc1ccc(C=O)cc1O2	122 to 123 °C
O=C(OCc1ccccc1)[C@@H](CC1=CCCC1)OS(=O)(=O)c1ccccc1[N+](=O)[O-]	122 to 124 °C
COC(=O)Cc1ccc2c(c1)C(OC)=Cc1ccccc1C2	72 to 73 °C
N#Cc1ccc(CN2C(=O)c3ccccc3C2=O)cc1	189 to 191 °C
O=S(=O)(NCCc1ccncc1)c1ccc(Br)s1	133 to 134 °C
COc1cc([N+](=O)[O-])c(NC(C)=O)cc1OC(F)F	116 to 117 °C
Cc1nc2c3c(ccc2n1C)C(=O)N1C(=O)C(C)(C(C)C)N=C31 (centres undefined)	258 to 263 °C
NNc1ccc(S(N)(=O)=O)cc1	169 to 171 °C
COc1nc(C)nc(NC(=O)NS(=O)(=O)c2ccccc2Cc2nnc(SC)s2)n1	140 to 146 °C
COc1ccc2nc(COc3ccc(CC(SC)C(N)=O)cc3)n(C)c2c1 (centres undefined)	188 to 190 °C
Cc1n[nH]c2ccc(-c3nn(C(C)c4oc5ccccc5c(=O)c4-c4cccc(F)c4)c4ncnc(N)c34)cc12 (centres undefined)	254 to 256 °C
Cc1cc(Nc2ccc(C#N)cc2)c([N+](=O)[O-])c(C)n1	171 to 172 °C
Clc1cc(CCc2ccccn2)c2oc(-c3ccsc3)nc2c1	126 to 127 °C

SMILES	melting point
C=C(C)Cc1cccc(C(=O)O)c1S	89 to 92 °C
CC(C)(C)OC(=O)Cc1ccc(CC(N=C(c2ccccc2)c2ccccc2)C(=O)OCc2ccccc2)cc1 (centres undefined)	139 to 141 °C
COc1nc(C)cnc1NS(=O)(=O)c1ccccc1-c1ccc(OC(C)C(=O)O)cc1 (centres undefined)	188 to 190 °C
COC(=O)c1ccc(-c2nc(-c3ccc(C(F)(F)F)cc3)cs2)cc1	156 to 158 °C
CCC1(N2C(=O)c3ccccc3C2=O)C(=O)NC(=O)N(C2CCCCC2)C1=O (centres undefined)	248 to 253 °C
O=[N+]([O-])c1ccc2c(c1)C(=NO)CCO2	173 to 178 °C
C/C(=C\c1ccc(OC(C)C)cc1Oc1ncc(C(F)(F)F)cc1Cl)C(=O)NS(=O)(=O)NCCOC(C)C	138 °C
COc1ccc(C(=O)Nc2c(C)c(C)c3c(c2C)C(c2ccc(C)cc2)C(C)(C)O3)cc1OC (centres undefined)	169 to 171 °C
N#Cc1cnc2c(Br)cccc2c1O	> 260 °C
COc1ccc(C(=O)O)cc1Oc1ccc(C(F)(F)F)cc1Cl	162 to 165 °C
O=C(CCl)Nc1cscn1	115 to 119 °C
CSCCS(=O)(=O)NCCCc1ccc(-c2ccc(=O)[nH]n2)cc1	173 to 174 °C
O=C(O)c1ccc(C(=O)Nc2cccc(Nc3nc(-c4cccnc4)cs3)c2)cc1	299 °C
O=C1CN(c2ccc(Cl)cc2)C(=O)N1S(=O)(=O)c1ccc(Cl)cc1	239 to 240 °C
COc1ccc(C(O)(Cc2ccncc2)c2ccccc2)c2c1OC(C)(C)C2 (centres undefined)	78 to 81 °C
CCc1nc2c(C)cc(C)nc2n1Cc1ccc(Nc2ccccc2)cc1	151 to 152 °C
O=Cc1ccc(-c2ccc(Br)cn2)cc1	120 to 121 °C
CC(C)(C)OC(=O)N(C(=O)OC(C)(C)C)c1sc(-c2cncc(F)c2)nc1F	143 °C
Cn1cc(C2=C(c3cn(CCCNc4ncccn4)c4ccccc34)C(=O)NC2=O)c2ccccc21	214 to 215 °C

SMILES	melting point
CNC(=O)Nc1ccc2c(c1)C(=O)NC(=O)C2(C)C	257 to 258 °C
CN(C)C(=O)C(OCc1ccc(-c2ccc(Cl)cc2)cc1)C(F)(F)F (centres undefined)	103 to 107 °C
CCC(=O)c1cc(C)nc2c1c(C)nn2-c1c(C)cc(C)cc1C	117 to 118 °C
CCOC(=O)c1cc2c(O)nncc2nc1NC(C)C	219 to 220 °C
CC(C)COc1ccc(COc2ccc(CC(=O)O)cc2Cl)cc1	107 to 108 °C
COc1ccc(S(=O)(=O)C(CC(=O)NO)Cc2ccc(Oc3ccccc3)cc2)cc1 (centres undefined)	65 to 70 °C
Nc1ccc2c(c1)C(=O)N(c1ccc(C(=O)O)cc1)C2=O	270 to 271 °C
CCOC(=O)c1ccc(C=C(C)C)c(OC)c1	42 °C
CS(=O)(=O)c1ccccc1SCc1ccccc1	132 to 133 °C
COC(=O)c1ccccc1-c1cc(-c2ccc(Cl)cc2)on1	85 to 86 °C
O=S(=O)(Nc1ccc(C2=NC3(O)c4ccc(Cl)cc4CC3S2)cc1)c1ccc(Cl)cc1 (centres undefined)	116 °C
CC(C)(C)[Si](C)(C)Oc1ccc(N)c([N+](=O)[O-])c1	80 to 83 °C
N#Cc1[nH]c2ccc(Cl)cc2c1-c1ccccc1	115 to 117 °C
CC(Oc1ccc(Oc2ccc(C(F)(F)F)cc2)cc1)C(N)=O (centres undefined)	147 to 149 °C
CCc1sc2ncnc(N)c2c1-c1ccc(NS(=O)(=O)c2ccccc2)cc1	209 to 210 °C
Cc1oc(-c2ccco2)nc1COc1ccc(COc2nn(Cc3ccccc3)cc2C=O)cc1OCc1ccccc1	130 to 131 °C
COC(=O)c1cccc(C(NCC(=O)Nc2c(C(C)C)cccc2C(C)C)c2ccccc2)c1 (centres undefined)	131 to 132 °C
Nc1[nH]nc(-c2ccc(Cl)cc2)c1-c1ccncc1	> 300 °C
